# According to US20230212584A1, “MEDICAMENT USED FOR TREATING CHOLANGIOCARCINOMA WITH KRAS MUTATIONS” (GENOMICARE BIOTECHNOLOGY (SHANGHAI) CO., LTD., priority 2022, published 2023):
# Tests used:
# [1] = system: KRAS-mutated cholangiocarcinoma cell line HUCCT1; assay: Cell viability assay, CellTiter-Glo (CTG) method, HUCCT1; type: cell-based; details: concentration higher than 2.5 μM; 1 nM Estradiol; 168 hours; lower inhibition rate than OZ; FIG. 4
# Protocol: (§1) Fulvestrant was assayed for its anti-cholangiocarcinoma activity using the CTG method. The cell lines used were KRAS-mutated cholangiocarcinoma cell lines HUCCT1 and OZ, as well as KRAS wild-type cholangiocarcinoma cell line HCCC-9810. The efficacy of treatment by a medicament for cholangiocarcinoma was determined by comparing the difference in growth between KRAS-mutant-type group and wild-type group after treatment by a medicament. The specific steps were as follows:
# (§2) 1) Different experimental cell lines were sub-cultured into 96-well plates. 100 μL of PBS was added around the 96-well plates as a blank, where the cholangiocarcinoma cell lines used were HUCCT, OZ and HCCC-9810. The cells in the 96-well plates were cultured overnight at 37° C., 5% CO2 and 95% humidity.
# (§3) 2) The cell culture medium in the 96-well plate was discarded and 100 μL of phenol red-free RPMI1640 culture medium containing 5% Charcoal Stripped FBS was added.
# (§4) 3) The cells in the 96-well plate with the changed medium were cultured at 37° C., 5% CO2, 95% humidity for another 48 hours. […]
# (§5) 9) On the 11th day of the culture, CellTiter-Glo® reagent and medicament-treated cell culture plates were placed at room temperature for 30 minutes to equilibrate. […] Chemiluminescence values were read with EnVision®. […]
# [2] = system: KRAS-mutated cholangiocarcinoma cell line OZ; assay: Cell viability assay, CellTiter-Glo (CTG) method, OZ; type: cell-based; details: 1 μM Fulvestrant; 1 nM Estradiol; 168 hours; inhibition rate increased with concentration; FIG. 4
# Protocol: as §1, §2, §3, §4, §5
smiles,measurement,setting,value
C[C@]12CC[C@@H]3c4ccc(O)cc4C[C@@H](CCCCCCCCC[S+]([O-])CCCC(F)(F)C(F)(F)F)[C@H]3[C@@H]1CC[C@@H]2O (some centres unmarked) [Fulvestrant],growth inhibition of HuCCT1,[1],significantly inhibited
same,growth inhibition of OZ,[2],significant growth inhibition
